Patent publication US20240101599A1, “PEPTIDE, CELL GROWTH PROMOTER, PROTEIN PRODUCTION PROMOTER, CULTURE MEDIUM, CELL GROWTH METHOD USING PEPTIDE, AND PROTEIN PRODUCTION METHOD USING PEPTIDE” (Maruhachi Muramatsu, Inc., priority 2020, published 2024)
Where two headings read alike, the source gives them in different places. Peptide text beside a SMILES is read from it.

What was measured:
CHO DP-12 [1] = details: 5 days; for Viable cell count: n=3; for Amount of protein produced: n=3, ELISA
Protocol: A cell suspension prepared such that CHO DP-12 (ATCC, Cat. No. CRL-12445) was at 2×10^4 cells/mL was seeded in a 24-well plate at 1×10^4 cells/well (500 μL) and cultured in an incubator at 37° C. and 5% CO2 for 24 hours. As a culture medium, a DMEM basal medium in which 200 nM of methotrexate and 2 μg/mL of insulin were blended in a DMEM culture medium (Gibco) containing 10% FBS was used.
After removing the culture medium from each well and washing with the DMEM basal medium (500 μL), each peptide solution (500 μL) was dispensed to each well (total 500 μL/well) to perform culture for 5 days.
After replacing each culture medium with an evaluation medium of the following test section, culture was performed in an incubator at 37° C. and 5% CO2 for 5 days.
• DMEM basal medium • AGK (1 mM)+DMEM basal medium • AGK (2 mM)+DMEM basal medium • Medium supplemented with vitamins and nucleic acids (DMEM basal medium+vitamin+nucleic acid) • AGK (1 mM)+medium supplemented with vitamins and nucleic acids • AGK (2 mM)+medium supplemented with vitamins and nucleic acids
After 5 days of culture, the total amount of the culture medium in each well of the 24-well plate was recovered, a centrifugation operation (5,000 rpm, for 5 minutes) was performed, and the supernatant was separately recovered to measure the amount of produced protein by ELISA.
The cells adhered to the wells after recovering the culture medium were detached by trypsin treatment and suspended again in the DMEM basal medium containing 10% FBS to measure the viable cell count and the viability by a trypan blue staining method using a cell counter.

CHO DP-12 [2] = experiment: Cell growth test and protein production test when peptide was added to total synthesis medium; assay type: cell-based; details: for Viability, Average / Viable cell count, Average / Amount of protein produced, Average: average n=3; for Viability, Average / Viable cell count, Average / Amount of protein produced, Average / Viability, 1 / Viable cell count, 1 / Amount of protein produced, 1 / Viability, 2 / Viable cell count, 2 / Amount of protein produced, 2 / Viability, 3 / Viable cell count, 3 / Amount of protein produced, 3: ASF104 basal medium, 5 days; for Amount of protein produced, Average / Amount of protein produced, 1 / Amount of protein produced, 2 / Amount of protein produced, 3: ELISA; for Viability, 1 / Viable cell count, 1 / Amount of protein produced, 1: replicate 1; for Viability, 2 / Viable cell count, 2 / Amount of protein produced, 2: replicate 2; for Viability, 3 / Viable cell count, 3 / Amount of protein produced, 3: replicate 3
Protocol: A peptide having the sequence of Gly-Glu-Lys (GEK) was synthesized to prepare peptide solutions at the concentrations of 0 mM, 2.6 mM, 5.1 mM, 10 mM, 20.5 mM, and 41 mM, and an amount of 1/10 of the total culture medium volume was added to each well immediately before the cell culture test such that final concentrations were 0 mM, 0.26 mM, 0.51 mM, 1.0 mM, 2.05 mM, and 4.1 mM, respectively. In the present test, CHO DP-12 (ATCC, Cat. No. CRL-12445) acclimated to an ASF104 basal medium in which 200 nM of methotrexate and 2 μg/mL of insulin were blended in an ASF104 culture medium (Ajinomoto Co., Inc.), which is a total synthesis medium for CHO, was used. A cell suspension prepared such that a cell concentration was 4×10^4 cells/mL was seeded in a 24-well plate at 450 μL/well and cultured in an incubator at 37° C. and 5% CO2 for 24 hours. As a culture medium, an ASF104 basal medium in which 200 nM of methotrexate and 2 μg/mL of insulin were blended in an ASF104 culture medium (Ajinomoto Co., Inc.), which is a total synthesis medium for CHO, was used.
After 24 hours, 50 μL of the prepared peptide solution was added to each well to perform culture for 5 days. The cells were recovered after culture to count the viable cell count.
• ASF104 basal medium • GEK (0.26 mM)+ASF104 basal medium • GEK (0.51 mM)+ASF104 basal medium • GEK (1.0 mM)+ASF104 basal medium • GEK (2.05 mM)+ASF104 basal medium • GEK (4.1 mM)+ASF104 basal medium
100 μL of the culture medium supernatant was collected in a 1.5 mL tube to quantitatively determine the amount of protein produced. The supernatant was diluted to measure the amount of protein produced by ELISA.
In order to analyze the cells, the culture medium in each well was recovered in a 1.5 mL tube to be rinsed with 200 μL of PBS, and the rinsed liquid was also recovered in the same 1.5 mL tube. Thereafter, 100 μL of 0.25% trypsin/EDTA was added to perform incubation for 1 minute. 100 μL of a trypsin inhibitor was added to recover in the same 1.5 mL tube. After rinsing with 200 μL of PBS to recover the rinsed liquid in the same 1.5 mL tube, a centrifugation operation was performed. Suspension was performed in 100 μL of PBS to measure the viable cell count and the cell viability by a trypan blue staining method using a cell counter.
The above preparation, culture, and measurement were performed with n=3. Table 28 and FIG. 27 show the viable cell count in each peptide solution, Table 29 and FIG. 28 show the cell viability in each peptide solution, and Table 30 and FIG. 29 show the amount of protein produced.

[3] = 1 mM AGK + medium supplemented with vitamins and nucleic acids
[4] = 2 mM AGK + medium supplemented with vitamins and nucleic acids

`C[C@H](N)C(=O)NCC(=O)N[C@@H](CCCCN)C(=O)O` [AGK, Ala-Gly-Lys] (H-Ala-Gly-Lys-OH; N-terminus and C-terminus assumed) was tested, and the Viable cell count (CHO DP-12 [1]; 1 mM AGK + DMEM basal medium) was 11.97 ×10^4cells/well, the “Amount of protein produced” value (CHO DP-12 [1]; 1 mM AGK + DMEM basal medium) was 7.5 mg/L and the Viable cell count (CHO DP-12 [1]; [3]) was 34.65 ×10^4cells/well. The “Amount of protein produced” value (CHO DP-12 [1]; [3]) was 15.74 mg/L, the Viable cell count (CHO DP-12 [1]; 2 mM AGK + DMEM basal medium) was 11.73 ×10^4cells/well and the “Amount of protein produced” value (CHO DP-12 [1]; 2 mM AGK + DMEM basal medium) was 7.4 mg/L. The Viable cell count (CHO DP-12 [1]; [4]) was 47.07 ×10^4cells/well and the “Amount of protein produced” value (CHO DP-12 [1]; [4]) was 14.34 mg/L.

With `NCCCC[C@H](NC(=O)[C@H](CCC(=O)O)NC(=O)CN)C(=O)O` [GEK, Gly-Glu-Lys] (H-Gly-Glu-Lys-OH; N-terminus and C-terminus assumed) the “Viability, Average” value (CHO DP-12 [2]; 0.26 mM GEK) was 97.0%, the “Viable cell count, Average” value (CHO DP-12 [2]; 0.26 mM GEK) was 1.6 ×10^6 cells/well and the “Amount of protein produced, Average” value (CHO DP-12 [2]; 0.26 mM GEK) was 12.5 mg/L. For the same compound, the “Viability, 1” value (CHO DP-12 [2]; 0.26 mM GEK) was 96%, the “Viable cell count, 1” value (CHO DP-12 [2]; 0.26 mM GEK) was 1.6 ×10^6 cells/well and the “Amount of protein produced, 1” value (CHO DP-12 [2]; 0.26 mM GEK) was 12.2 mg/L. For the same compound, the “Viability, 2” value (CHO DP-12 [2]; 0.26 mM GEK) was 99%, the “Viable cell count, 2” value (CHO DP-12 [2]; 0.26 mM GEK) was 1.5 ×10^6 cells/well and the “Amount of protein produced, 2” value (CHO DP-12 [2]; 0.26 mM GEK) was 12.6 mg/L. The “Viability, 3” value (CHO DP-12 [2]; 0.26 mM GEK) was 96%, the “Viable cell count, 3” value (CHO DP-12 [2]; 0.26 mM GEK) was 1.6 ×10^6 cells/well and the “Amount of protein produced, 3” value (CHO DP-12 [2]; 0.26 mM GEK) was 12.7 mg/L. The “Viability, Average” value (CHO DP-12 [2]; 0.51 mM GEK) was 96.7%, the “Viable cell count, Average” value (CHO DP-12 [2]; 0.51 mM GEK) was 1.6 ×10^6 cells/well and the “Amount of protein produced, Average” value (CHO DP-12 [2]; 0.51 mM GEK) was 12.9 mg/L. The “Viability, 1” value (CHO DP-12 [2]; 0.51 mM GEK) was 95%, the “Viable cell count, 1” value (CHO DP-12 [2]; 0.51 mM GEK) was 1.5 ×10^6 cells/well and the “Amount of protein produced, 1” value (CHO DP-12 [2]; 0.51 mM GEK) was 12.8 mg/L. For the same compound, the “Viability, 2” value (CHO DP-12 [2]; 0.51 mM GEK) was 98%, the “Viable cell count, 2” value (CHO DP-12 [2]; 0.51 mM GEK) was 1.7 ×10^6 cells/well and the “Amount of protein produced, 2” value (CHO DP-12 [2]; 0.51 mM GEK) was 13.2 mg/L. For the same compound, the “Viability, 3” value (CHO DP-12 [2]; 0.51 mM GEK) was 97%, the “Viable cell count, 3” value (CHO DP-12 [2]; 0.51 mM GEK) was 1.6 ×10^6 cells/well and the “Amount of protein produced, 3” value (CHO DP-12 [2]; 0.51 mM GEK) was 12.6 mg/L. For the same compound, the “Viability, Average” value (CHO DP-12 [2]; 1.0 mM GEK) was 96.7%, the “Viable cell count, Average” value (CHO DP-12 [2]; 1.0 mM GEK) was 1.5 ×10^6 cells/well and the “Amount of protein produced, Average” value (CHO DP-12 [2]; 1.0 mM GEK) was 13.1 mg/L. The “Viability, 1” value (CHO DP-12 [2]; 1.0 mM GEK) was 97%, the “Viable cell count, 1” value (CHO DP-12 [2]; 1.0 mM GEK) was 1.3 ×10^6 cells/well and the “Amount of protein produced, 1” value (CHO DP-12 [2]; 1.0 mM GEK) was 12.4 mg/L. The “Viability, 2” value (CHO DP-12 [2]; 1.0 mM GEK) was 97%, the “Viable cell count, 2” value (CHO DP-12 [2]; 1.0 mM GEK) was 1.8 ×10^6 cells/well and the “Amount of protein produced, 2” value (CHO DP-12 [2]; 1.0 mM GEK) was 12.8 mg/L. The “Viability, 3” value (CHO DP-12 [2]; 1.0 mM GEK) was 96%, the “Viable cell count, 3” value (CHO DP-12 [2]; 1.0 mM GEK) was 1.4 ×10^6 cells/well and the “Amount of protein produced, 3” value (CHO DP-12 [2]; 1.0 mM GEK) was 14.1 mg/L. The “Viability, Average” value (CHO DP-12 [2]; 2.05 mM GEK) was 96.7%, the “Viable cell count, Average” value (CHO DP-12 [2]; 2.05 mM GEK) was 1.9 ×10^6 cells/well and the “Amount of protein produced, Average” value (CHO DP-12 [2]; 2.05 mM GEK) was 17.0 mg/L. The “Viability, 1” value (CHO DP-12 [2]; 2.05 mM GEK) was 96%, the “Viable cell count, 1” value (CHO DP-12 [2]; 2.05 mM GEK) was 1.9 ×10^6 cells/well and the “Amount of protein produced, 1” value (CHO DP-12 [2]; 2.05 mM GEK) was 17.5 mg/L. For the same compound, the “Viability, 2” value (CHO DP-12 [2]; 2.05 mM GEK) was 96%, the “Viable cell count, 2” value (CHO DP-12 [2]; 2.05 mM GEK) was 2.2 ×10^6 cells/well and the “Amount of protein produced, 2” value (CHO DP-12 [2]; 2.05 mM GEK) was 17.7 mg/L. The “Viability, 3” value (CHO DP-12 [2]; 2.05 mM GEK) was 98%, the “Viable cell count, 3” value (CHO DP-12 [2]; 2.05 mM GEK) was 1.4 ×10^6 cells/well and the “Amount of protein produced, 3” value (CHO DP-12 [2]; 2.05 mM GEK) was 15.6 mg/L. The “Viability, Average” value (CHO DP-12 [2]; 4.1 mM GEK) was 97.0%, the “Viable cell count, Average” value (CHO DP-12 [2]; 4.1 mM GEK) was 1.7 ×10^6 cells/well and the “Amount of protein produced, Average” value (CHO DP-12 [2]; 4.1 mM GEK) was 13.3 mg/L. The “Viability, 1” value (CHO DP-12 [2]; 4.1 mM GEK) was 97%, the “Viable cell count, 1” value (CHO DP-12 [2]; 4.1 mM GEK) was 1.8 ×10^6 cells/well and the “Amount of protein produced, 1” value (CHO DP-12 [2]; 4.1 mM GEK) was 13.9 mg/L. For the same compound, the “Viability, 2” value (CHO DP-12 [2]; 4.1 mM GEK) was 98%, the “Viable cell count, 2” value (CHO DP-12 [2]; 4.1 mM GEK) was 1.8 ×10^6 cells/well and the “Amount of protein produced, 2” value (CHO DP-12 [2]; 4.1 mM GEK) was 13.2 mg/L. For the same compound, the “Viability, 3” value (CHO DP-12 [2]; 4.1 mM GEK) was 96%, the “Viable cell count, 3” value (CHO DP-12 [2]; 4.1 mM GEK) was 1.5 ×10^6 cells/well and the “Amount of protein produced, 3” value (CHO DP-12 [2]; 4.1 mM GEK) was 12.8 mg/L. The “amount of protein produced as compared to the basal medium (total synthesis medium)” value (CHO DP-12 [2]; in words) was “the amount of protein produced also tended to increase”, the “cell viability as compared to the basal medium (total synthesis medium)” value (CHO DP-12 [2]; in words) was “the cell viability was similarly high” and the “viable cell count as compared to the basal medium (total synthesis medium)” value (CHO DP-12 [2]; in words) was “the viable cell count increased”.
